The text below walks through data of patent US20240000806A1, “METHODS AND MATERIALS FOR INHIBITING CB1 ACTIVITY” (University of Pittsburgh - Of the Commonwealth System of …, priority 2020, published 2024).

CB1 (CNR1), sequence (P21554 whole entry, the tested form may be a part): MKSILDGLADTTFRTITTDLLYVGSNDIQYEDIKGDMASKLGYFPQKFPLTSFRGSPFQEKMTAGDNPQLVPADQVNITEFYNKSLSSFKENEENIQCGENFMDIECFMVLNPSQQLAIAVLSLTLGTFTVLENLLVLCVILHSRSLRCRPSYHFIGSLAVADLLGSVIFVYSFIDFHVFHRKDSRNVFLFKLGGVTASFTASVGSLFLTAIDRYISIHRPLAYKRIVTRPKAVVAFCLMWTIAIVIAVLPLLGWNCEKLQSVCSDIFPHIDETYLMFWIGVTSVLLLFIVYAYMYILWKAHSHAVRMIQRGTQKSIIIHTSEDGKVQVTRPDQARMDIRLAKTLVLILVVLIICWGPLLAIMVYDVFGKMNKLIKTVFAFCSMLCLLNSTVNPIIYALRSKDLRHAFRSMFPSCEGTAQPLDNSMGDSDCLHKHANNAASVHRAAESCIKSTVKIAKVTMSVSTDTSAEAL

For the experiment, the target named is CB1 (CNR1) (Homo sapiens, UniProt P21554). Description: cAMP CNR1 Hunter cell line antagonist assay (CB1 assay). To be noted: antagonist mode, cAMP CNR1 Hunter cells, EC80 agonist; read-out: CB1 assay, Efficacy (IC50). In kind it is cell-based. The procedure, abridged:
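Antagonist mode in CNR1 Hunter cells: compound preincubated 30 min at 37 °C, then EC80 agonist for 30 min at 37 °C. cAMP measured by enzyme-fragment complementation chemiluminescence after lysis (1 h) and detection (3 h, room temperature); IC50 fitted from the dose response.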
Consider `CCS(=O)(=O)c1cc2c(c(S(=O)(=O)Nc3ccc(F)c(F)c3)c1)OCC(=O)N2` [BC19421], for which the IC50 was at least 25 µM.
On to `CC(C)CC1Oc2cc(S(=O)(=O)Nc3ccc(C(C)C)cc3)c(Br)cc2NC1=O` (stereo not shown) [BC19766], for which the IC50 was at least 25 µM.
As to `CC1Oc2c(cc(Br)cc2S(=O)(=O)Nc2ccccc2)N(C)C1=O` (stereo not shown) [BC19789], the IC50 was at least 25 µM.
Next, `CC1Oc2c(cc(Br)cc2S(=O)(=O)Nc2cccc(F)c2)N(C)C1=O` (stereo not shown) [BC19902]: at least 25 µM.
As to `CCc1cccc(NS(=O)(=O)c2cc3c(cc2Br)NC(=O)C(CC(C)C)O3)c1` (stereo not shown) [BC19772], the IC50 lay within 1 to 25 µM.
As to `CCS(=O)(=O)c1cc2c(c(S(=O)(=O)Nc3cccc(Cl)c3)c1)OCC(=O)N2` [BC19441], the IC50 was at least 25 µM.
Consider `CC1Oc2c(cc(Br)cc2S(=O)(=O)Nc2ccc(OC(F)(F)F)cc2)N(C)C1=O` (stereo not shown) [BC19783], for which the concentration for half-maximal inhibition (IC50) was 1 to 25 µM.
Next, `O=C1NCCOc2c1cc(Br)cc2S(=O)(=O)Nc1ccc(Cl)cc1` [BC19603]: at least 25 µM; `COc1ccc(NS(=O)(=O)c2cc(S(C)(=O)=O)cc3c2OCC(=O)N3)cc1` [BC19485]: at least 25 µM.
As for `CC1Oc2cc(S(=O)(=O)Nc3ccc(C#N)cc3)c(Cl)cc2NC1=O` (stereo not shown) [BC19729], the IC50 is below 1 µM.
Turning to `CCc1ccc(NS(=O)(=O)c2cc3c(cc2Br)N(C)C(=O)C(CC)O3)cc1` (stereo not shown) [BC19932], the IC50 was at least 25 µM.
Consider `CCOc1ccc(NS(=O)(=O)c2cc3c(cc2Cl)NC(=O)C(C)O3)cc1` (stereo not shown) [BC19281], for which the IC50 is at least 25 µM.
`Cc1ccc(NS(=O)(=O)c2cc3c(cc2Br)NC(=O)CCO3)cc1Cl` [BC19659]: the IC50 is at least 25 µM.
Next, `CC(C)CC1Oc2c(cc(Br)cc2S(=O)(=O)Nc2ccc(F)cc2F)NC1=O` (stereo not shown) [BC19769]: 1 to 25 µM; `CCC1Oc2c(cc(Cl)cc2S(=O)(=O)Nc2ccc(C)cc2)NC1=O` (stereo not shown) [BC19754]: 1 to 25 µM.
Next, `CC1Oc2cc(S(=O)(=O)Nc3ccc(Cl)cc3)c(Br)cc2N(C)C1=O` (stereo not shown) [BC19792]: at least 25 µM; `CCC1Oc2cc(S(=O)(=O)Nc3ccc(Cl)cc3)c(Br)cc2N(C)C1=O` (stereo not shown) [BC19930]: at least 25 µM.
As to `CCC1Oc2cc(S(=O)(=O)NCc3ccc(C(F)(F)F)cc3)c(Br)cc2NC1=O` (stereo not shown) [BC19370], the IC50 was at least 25 µM.
Consider `CCOc1ccc(NS(=O)(=O)c2cc(Cl)cc3c2OC(C)C(=O)N3)cc1` (stereo not shown) [BC19355], for which the IC50 was in the range of 1 to 25 µM.
Take `O=C1COc2cc(S(=O)(=O)NCc3ccc(OC(F)(F)F)cc3)c(Br)cc2N1` [BC19392]: the IC50 was at least 25 µM.
Next, `CC1Oc2cc(S(=O)(=O)NCc3ccc(OC(F)(F)F)cc3)c(Br)cc2NC1=O` (stereo not shown) [BC19357]: 1 to 25 µM; `CCc1cccc(NS(=O)(=O)c2cc(Br)cc3c2OC(C)C(=O)N3C)c1` (stereo not shown) [BC19900]: at least 25 µM; `CCC1Oc2cc(S(=O)(=O)Nc3ccc(C)c(Cl)c3)c(Cl)cc2NC1=O` (stereo not shown) [BC19745]: 1 to 25 µM.
For the compound `CC(C)CC1Oc2c(cc(Br)cc2S(=O)(=O)Nc2ccccc2)NC1=O` (stereo not shown) [BC19761], the IC50 lay in the range of 1 to 25 µM.
Next, `CC(C)CC1Oc2cc(S(=O)(=O)Nc3ccccc3)c(Br)cc2NC1=O` (stereo not shown) [BC19762]: at least 25 µM.
`CS(=O)(=O)c1cc2c(c(S(=O)(=O)Nc3ccc(F)cc3)c1)OCC(=O)N2` [BC19430]: the IC50 is at least 25 µM.
Turning to `CCC1Oc2c(cc(Cl)cc2S(=O)(=O)Nc2cccc(Cl)c2)NC1=O` (stereo not shown) [BC19752], the IC50 is 1 to 25 µM.
With `CC1Oc2c(cc(Br)cc2S(=O)(=O)Nc2ccc(F)cc2Cl)N(C)C1=O` (stereo not shown) [BC19908], the 50% inhibitory concentration (IC50) was at least 25 µM.
On to `CCc1ccc(NS(=O)(=O)c2cc(Br)cc3c2OC(CC)C(=O)N3C)cc1` (stereo not shown) [BC19931], for which the IC50 was at least 25 µM.
To `CC(C)CC(=O)N1c2cc(S(=O)(=O)N3CCCC3)ccc2NC(=O)C1C` (stereo not shown) [BC19184] belongs 1 to 25 µM.
Take `CCC1Oc2cc(S(=O)(=O)Nc3ccc(F)cc3F)c(Br)cc2N(C)C1=O` (stereo not shown) [BC19914]: the IC50 fell in the range of 1 to 25 µM.
For `Cc1ccc(Cl)cc1NS(=O)(=O)c1cc(Cl)cc2c1OCC(=O)N2` [BC19170], the IC50 lay in the range of 1 to 25 µM.
To `CC1Oc2cc(S(=O)(=O)NCc3ccc(C(F)(F)F)cc3)c(Br)cc2NC1=O` (stereo not shown) [BC19358] belongs 1 to 25 µM; to `O=C1NCCOc2c1cc(Br)cc2S(=O)(=O)Nc1cccc(Cl)c1` [BC19611], at least 25 µM; to `Cc1ccc(NS(=O)(=O)c2cc(Br)cc3c2OC(C)C(=O)N3C)cc1` (stereo not shown) [BC19906], at least 25 µM.
Regarding `Cc1ccc(NS(=O)(=O)c2cc(Br)cc3c2OC(C)C(=O)N3)cc1Cl` (stereo not shown) [BC19225], the IC50 was at least 25 µM.
For `CCC1Oc2cc(S(=O)(=O)Nc3ccc(C)c(F)c3)c(Br)cc2N(C)C1=O` (stereo not shown) [BC19924], the IC50 fell in the range of 1 to 25 µM.
Consider `CCc1cccc(NS(=O)(=O)c2cc(Br)cc3c2OCCNC3=O)c1` [BC19609], for which the IC50 was in the range of 1 to 25 µM.
`CCc1ccc(NS(=O)(=O)c2cc(Br)cc3c2OCCC(=O)N3)cc1` [BC19686]: the IC50 lay in the range of 1 to 25 µM.
Turning to `CC1Oc2cc(S(=O)(=O)Nc3cccc(Cl)c3)c(Cl)cc2NC1=O` (stereo not shown) [BC19715], the IC50 is below 1 µM.
For `CCC1Oc2c(cc(Br)cc2S(=O)(=O)Nc2ccc(OC)cc2)N(C)C1=O` (stereo not shown) [BC19935], the IC50 is at least 25 µM.
In the case of `COc1ccc(NS(=O)(=O)c2cc(Br)cc3c2OC(CC(C)C)C(=O)N3)cc1Cl` (stereo not shown) [BC19779], the IC50 was at least 25 µM.
On to `CCc1ccc(NS(=O)(=O)c2cc(Br)cc3c2OC(CC(C)C)C(=O)N3)cc1` (stereo not shown) [BC19763], for which the half-inhibitory concentration (IC50) lay in the range of 1 to 25 µM.
On to `CCc1cccc(NS(=O)(=O)c2cc3c(cc2Br)N(C)C(=O)C(CC)O3)c1` (stereo not shown) [BC19916], for which the IC50 lay within 1 to 25 µM.
`Cc1ccc(NS(=O)(=O)c2cc3c(cc2C)NC(=O)CO3)cc1` [BC19134]: the IC50 was below 1 µM.
In the case of `Cc1ccc(NS(=O)(=O)c2cc(Br)cc3c2OCCNC3=O)cc1` [BC19612], the IC50 was at least 25 µM.
`CC1Oc2cc(S(=O)(=O)NC3CCC(O)CC3)c(Br)cc2NC1=O` (stereo not shown) [BC19360]: the IC50 is at least 25 µM.
As for `CCOc1ccc(NS(=O)(=O)c2cc3c(cc2Br)NC(=O)CO3)cc1` [BC19135], the IC50 lay in the range of 1 to 25 µM.
Regarding `CC(C)c1ccc(NS(=O)(=O)c2cc(Br)cc3c2OCCNC3=O)cc1` [BC19605], the IC50 was at least 25 µM.
Turning to `CC(C)CC1Oc2c(cc(Br)cc2S(=O)(=O)Nc2ccc(F)c(F)c2)NC1=O` (stereo not shown) [BC19759], the IC50 is 1 to 25 µM.
Regarding `CC1Oc2cc(S(=O)(=O)Nc3ccc(F)c(F)c3)c(Br)cc2N(C)C1=O` (stereo not shown) [BC19788], the 50% inhibitory concentration (IC50) was in the range of 1 to 25 µM.
With `CCS(=O)(=O)c1cc2c(c(S(=O)(=O)Nc3cccc(F)c3)c1)OCC(=O)N2` [BC19440], the IC50 was at least 25 µM.
Regarding `O=C1NCCOc2c1cc(Br)cc2S(=O)(=O)Nc1ccc(F)cc1Cl` [BC19613], the IC50 is at least 25 µM.
For the compound `CCC1Oc2cc(S(=O)(=O)Nc3ccc(Cl)cc3)c(Cl)cc2NC1=O` (stereo not shown) [BC19739], the IC50 lay within 1 to 25 µM.
As for `CC(=O)N1CC(=O)Nc2ccc(S(=O)(=O)N3CCCC3)cc21` [BC19295], the IC50 was at least 25 µM.

In general, IC50 refers to the point on the concentration scale where inhibition reaches its midpoint.
